Laboratory results as given in paper PMC4797285 (Nucleic Acids Research, 2016).

What was measured:
[1] = test system: ribosomes translating 2XErmBL mRNA (RTS 100 E. coli HY Kit); test: Disome formation assay; format: biochemical, Escherichia coli; details: 20 μM erythromycin, positive control
[2] = test system: ribosome on the mRNA (PURExpress in vitro protein synthesis kit); test: Toe-printing assay; format: biochemical; details: for Position of ribosome stalling in toe-print: 100 μM thiostrepton, 50 μM clindamycin

Compound | Position of ribosome stalling in toe-print [2] | also measured
CC[C@H]1OC(=O)[C@H](C)[C@@H](O[C@H]2C[C@@](C)(OC)[C@@H](O)[C@H](C)O2)[C@H](C)[C@@H](O[C@@H]2O[C@H](C)C[C@H](N(C)C)[C@H]2O)[C@](C)(O)C[C@@H](C)C(=O)[C@H](C)[C@@H](O)[C@]1(C)O [erythromycin] | – | Disome formation (translation arrest) [1]: generating the expected disome peaks
C=C(NC(=O)C(=C)NC(=O)c1csc(C2=N[C@@H]3c4csc(n4)[C@H]4NC(=O)c5csc(n5)[C@H]([C@](C)(O)[C@@H](C)O)NC(=O)[C@H]5CSC(=N5)/C(=C/C)NC(=O)[C@H]([C@@H](C)O)NC(=O)c5csc(n5)[C@]3(CC2)NC(=O)[C@H](C)NC(=O)C(=C)NC(=O)[C@H](C)NC(=O)[C@H]([C@@H](C)CC)N[C@@H]2C=Cc3c([C@H](C)O)cc(nc3[C@H]2O)C(=O)O[C@@H]4C)n1)C(N)=O [thiostrepton] | ribosomes accumulated at the AUG codon | –
RRIRPRPPRLPRPRPR [Bac7(1–16)] | – | Toeprint for ribosomes stalled during initiation ([2]; 100 μM peptide, signal for full-length mRNA became stronger, similar to edeine): became weaker
CCC[C@@H]1C[C@@H](C(=O)N[C@@H]([C@H]2O[C@H](SC)[C@H](O)[C@@H](O)[C@H]2O)[C@H](C)Cl)N(C)C1 [clindamycin] | ribosomes accumulated at the AUG codon | –
